{"source": "patent US6527759B1", "about": "“Ultrasound assembly for use with light activated drugs” (Ekos Corporation, priority 1995, dated 2003)", "key": {"[1]": {"assay": "Drug solubility in oil: SnEt2 in MCT oil with excipient combinations (Example 5)", "format": "physicochemical", "conditions": "emulsion with excipients vs MCT oil alone", "experimental": "(§1) Several emulsions are prepared as described above. In 5 ml glass tubes, medium chain length oil known as MCT oil (Miglyol 801, Hüls America, Piscataway, N.J.) is combined with 10 mg/gm SnEt2 plus excipients as described above. Certain emulsions also included additional excipients in the following concentrations: ethanol at […]; egg phospholipids at 75 mg/gm oil; and sodium cholate at 10 mg/gm oil. After incubating for 30 minutes at 55° C., the tubes stand overnight at room temperature (19°-22° C.). The tubes arc centrifuged to remove bulk precipitates, and supernatants are filtered through 0.45 μm nylon membrane to remove any undissolved drug. Aliquots of filtrate are then diluted in chloroform:isopropyl alcohol (1:1) for spectrophotometric determination of drug concentration (absorbance at 662 nm). Reference standards are prepared with known concentrations of SnEt2 in the same solvent.\nThe concentration of SnEt2 in each of the emulsions is illustrated in Table 2. As illustrated, the concentration of SnEt2 in the emulsion can be more than ten times the concentration in MCT oil alone."}, "[2]": {"assay": "Relative efficiency of bile salts as co-solubilizers for SnEt2 in MCT oil, egg phospholipids and ethanol (Example 6)", "format": "physicochemical", "conditions": "egg phospholipids, ethanol", "experimental": "as §1\nThis example illustrates relative efficiencies of several bile salts. Mixtures of MCT oil, egg phospholipids, ethanol, and SnEt2 are incubated with different bile salts, all at 4.6 mM^1, under the same conditions described above. […] Cholic acid lacks solubilizing action in the oil."}}, "data": [{"molecule": "CCOC(=O)C1=Cc2c3nc(cc4nc(cc5[n-]c(cc6[n-]c2c(C)c6CC)c(C)c5CC)C(C)=C4CC)[C@@H](C)[C@]13CC.[Cl-].[Cl-].[Sn]", "note": "(racemic) [SnEt2, tin ethyl etiopurpurin]", "values": [{"measurement": "concentration of SnEt2 in the emulsion relative to the concentration in MCT oil alone", "setting": "[1]", "value": "more than ten"}, {"measurement": "SnEt2 Concentration", "setting": "[2]; bile compound: Cholic acid, 4.6 mM", "value": 1.33, "unit": "mg/gm oil"}, {"measurement": "SnEt2 Concentration", "setting": "[2]; bile compound: Na Tauracholate, 4.6 mM", "value": 1.13, "unit": "mg/gm oil"}, {"measurement": "SnEt2 Concentration", "setting": "[2]; bile compound: Na cholate, 4.6 mM", "value": 3.70, "unit": "mg/gm oil"}, {"measurement": "SnEt2 Concentration", "setting": "[2]; bile compound: Na deoxycholate, 4.6 mM", "value": 2.31, "unit": "mg/gm oil"}, {"measurement": "SnEt2 Concentration", "setting": "[2]; bile compound: Na glycocholate, 4.6 mM", "value": 2.22, "unit": "mg/gm oil"}, {"measurement": "SnEt2 Concentration", "setting": "[2]; bile compound: None", "value": 1.26, "unit": "mg/gm oil"}]}]}
